Data reported in patent US20060223819A1, “Quinoline Derivatives as NK-3 Antagonists” (GlaxoSmithKline S.P.A. & Laboratoire, priority 2000, published 2006).
Counter-ions that a name gives are not always drawn.

melting point [°C]	Compound
225 to 230	C[C@H](NC(=O)c1c(CN2CCNC(=O)C2)c(-c2cccs2)nc2ccccc12)C1CCCCC1 [Example 41, 3-(3-Oxo-piperazin-1-ylmethyl)-2-thiophen-2-yl-quinoline-4-carboxylic acid ((S)-1-cyclohexylethyl)-amide]
137	CC(C)[C@H](NC(=O)c1c(CN2CCNC(=O)C2)c(-c2ccccc2)nc2ccccc12)c1ccccc1 [Example 42, 3-(3-Oxo-piperazin-1-ylmethyl)-2-phenyl-quinoline-4-carboxylic acid ((S)-2-methyl-1-phenyl-propyl)-amide]
171 to 173	C[C@H](NC(=O)c1c(CN2CCN(CCO)C(=O)C2)c(-c2ccccc2)nc2ccccc12)C1CCCCC1 (as salt: hydrochloride) [Example 37, 3-[4-(2-Hydroxyethyl)-3-oxopiperazin-1-ylmethyl]-2-phenylquinoline-4-carboxylic acid ((S)-1-cyclohexyl-ethyl)-amide dihydrochloride]
160	CC[C@H](NC(=O)c1c(CN2CCNC(=O)C2)c(-c2ccccc2)nc2ccccc12)c1ccccc1 [Example 40, 3-(3-Oxo-piperazin-1-ylmethyl)-2-phenyl-quinoline-4-carboxylic acid((S)-1-phenyl-propyl)-amide]

Further lines, the compound ahead of its results:

Compound	melting point [°C]
CCCN1CCN(Cc2c(-c3ccccc3)nc3ccccc3c2C(=O)N[C@@H](C)C2CCCCC2)CC1=O [Example 36, 3-(3-Oxo-4-propyl-piperazin-1-ylmethyl)-2-phenyl-quinoline-4-carboxylic acid ((S)-1-cyclohexyl-ethyl)-amide]	150
C[C@H](NC(=O)c1c(CN2CCNCC2)c(-c2ccccc2)nc2ccccc12)c1ccc(O)cc1 [Example 6, 2-Phenyl-3-piperazin-1-ylmethyl-quinoline-4-carboxylic acid [(S)-1-(4-hydroxy-phenyl)-ethyl]-amide]	163
CCOC(=O)C(CN1CCN(Cc2c(-c3ccccc3)nc3ccccc3c2C(=O)N[C@@H](C)C2CCCCC2)CC1)c1ccccc1 (stereo partly drawn) [Example 20, 3-{4-[4-((S)-1-Cyclohexyl-ethylcarbamoyl)-2-phenyl-quinolin-3-ylmethyl]-piperazin-1-yl}-2-phenyl-propionic acid ethyl ester]	90 to 91
CC(CN1CCN(Cc2c(-c3ccccc3)nc3ccccc3c2C(=O)N[C@@H](C)c2ccccc2)CC1)C(=O)O (stereo partly drawn) [Example 14, 2-Methyl-3-{4-[2-phenyl-4-((S)-1-phenyl-ethylcarbamoyl)-quinolin-3-ylmethyl]-piperazin-1-yl}-propionic acid]	137 to 138
C[C@H](NC(=O)c1c(CN2CCNC(=O)C2)c(-c2ccccc2)nc2cc(F)ccc12)C1CCCCC1 [Example 35, 7-Fluoro-3-(3-oxopiperazin-1-ylmethyl)-2-phenylquinoline-4-carboxylic acid ((S)-1-cyclohexyl-ethyl)-amide]	163 to 165
C[C@H](NC(=O)c1c(CN2CCN(CC(N)=O)CC2)c(-c2ccccc2)nc2ccccc12)C1CCCCC1 [Example 19, 3-(4-Carbamoylmethyl-piperazin-1-ylmethyl)-2-phenyl-quinoline-4-carboxylic acid ((S)-1-cyclohexyl-ethyl)-amide]	125 to 130
C[C@H](NC(=O)c1c(CN2CCN(CC(C(=O)O)c3ccccc3)CC2)c(-c2ccccc2)nc2ccccc12)C1CCCCC1 (stereo partly drawn) [Example 22, 3-{4-[4-((S)-1-Cyclohexyl-ethylcarbamoyl)-2-phenyl-quinolin-3-ylmethyl]-piperazin-1-yl}-2-phenyl-propionic acid]	144 to 145
C[C@H](NC(=O)c1c(CN2CCNCC2=O)c(-c2ccccc2)nc2ccccc12)C1CCCCC1 [Example 30, 3-(2-Oxopiperazin-1-ylmethyl)-2-phenylquinoline-4-carboxylic acid ((S)-1-cyclohexylethyl)-amide]	212
